From ChEMBL document CHEMBL1201862, “PubChem BioAssay data set” (2004)
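Where inhibition never reached the appropriate level, the endpoint shown equals the highest concentration tested. Otherwise, values were interpolated linearly from a five-concentration, 48-hour dose response in 96-well plates. Abbreviation: GI50, concentration required for 50% inhibition of growth.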 The source made the active and inactive calls. Cut-off read from the data, not from the text of the source: active = GI50 up to about 1.1 µM and inactive = higher.

Legend:
Assay in all cases: NCI tumour cell line growth inhibition, 48 h
SNB-75 = system: SNB-75
SF-539 = system: SF-539
EKVX = system: EKVX
MDA-MB-435 = system: MDA-MB-435
UO-31 = system: UO-31
SN12C = system: SN12C
MCF7 = system: MCF7
NCI-H522 = system: NCI-H522
786-0 = system: 786-0
Hs-578T = system: Hs-578T
OVCAR-8 = system: OVCAR-8
Malme-3M = system: Malme-3M
K562 = system: K562
DU-145 = system: DU-145
COLO 205 = system: COLO 205
LOX IMVI = system: LOX IMVI
TK-10 = system: TK-10
SK-OV-3 = system: SK-OV-3
SF-295 = system: SF-295
SR = system: SR

Measured: GI50

CC(=O)N1CN2C(=O)CCC2c2cc(C)ccc21 (configuration not stated)
inactive: SNB-75 > 100 µM | SF-539 > 100 µM | EKVX > 100 µM | MDA-MB-435 > 100 µM | UO-31 > 100 µM | SN12C > 100 µM | MCF7 > 100 µM | NCI-H522 > 100 µM | 786-0 > 100 µM | Hs-578T > 100 µM | OVCAR-8 > 100 µM | Malme-3M > 100 µM | K562 > 100 µM | DU-145 > 100 µM | COLO 205 > 100 µM | LOX IMVI > 100 µM | TK-10 > 100 µM | SK-OV-3 > 100 µM | SF-295 > 100 µM

Cc1c(-c2ccccc2)n[nH]c1NC1(C)C(=O)N(/N=C/c2ccccc2)N=C1c1ccccc1 (configuration not stated)
inactive: SNB-75 > 100 µM | SF-539 > 100 µM | EKVX > 91.6 µM | MDA-MB-435 52.7 µM | UO-31 > 100 µM | SN12C > 19.9 µM | MCF7 4.78 µM | NCI-H522 > 100 µM | 786-0 > 100 µM | Hs-578T > 100 µM | OVCAR-8 > 100 µM | Malme-3M > 100 µM | K562 6.15 µM | DU-145 > 100 µM | COLO 205 > 30.5 µM | LOX IMVI > 100 µM | TK-10 > 100 µM | SK-OV-3 > 100 µM | SF-295 68.2 µM

C=C1[C@@H]([C@@]2(C)C=CC(=O)C(C)(C)[C@@H]2CC(=O)OC)CC[C@@]2(C)[C@H](c3ccoc3)OC(=O)[C@H]3O[C@]132 [ANDIROBIN]
inactive: SNB-75 46.2 µM | SF-539 > 100 µM | EKVX > 100 µM | MDA-MB-435 > 100 µM | UO-31 73.8 µM | SN12C > 100 µM | MCF7 > 100 µM | NCI-H522 > 100 µM | 786-0 > 100 µM | Hs-578T > 100 µM | OVCAR-8 > 100 µM | Malme-3M > 100 µM | DU-145 > 100 µM | COLO 205 93.1 µM | LOX IMVI > 100 µM | TK-10 > 100 µM | SK-OV-3 > 100 µM | SF-295 87.5 µM

Cc1cn(CCCC2=NCCCN2)c(=O)[nH]c1=O
inactive: SNB-75 > 100 µM | SF-539 > 100 µM | EKVX > 100 µM | MDA-MB-435 > 100 µM | UO-31 > 100 µM | SN12C > 100 µM | MCF7 > 100 µM | NCI-H522 > 100 µM | 786-0 > 100 µM | Hs-578T > 100 µM | OVCAR-8 > 100 µM | Malme-3M > 100 µM | K562 > 100 µM | DU-145 > 100 µM | COLO 205 > 100 µM | LOX IMVI > 100 µM | TK-10 > 100 µM | SK-OV-3 > 100 µM | SF-295 > 100 µM

O=C(O)c1cc(O)nc(S)n1
inactive: SNB-75 94.2 µM | EKVX > 100 µM | MDA-MB-435 > 100 µM | UO-31 > 100 µM | SN12C > 100 µM | MCF7 > 100 µM | NCI-H522 > 100 µM | 786-0 > 100 µM | Hs-578T > 100 µM | OVCAR-8 > 100 µM | Malme-3M > 100 µM | K562 > 100 µM | DU-145 > 100 µM | COLO 205 > 100 µM | LOX IMVI > 100 µM | TK-10 > 100 µM | SK-OV-3 > 100 µM | SF-295 > 100 µM

Cc1ccc(C)n1-c1ccccc1C1C=Cn2c(=O)oc3c(OC(C)C)c(OC(C)C)c(O)c1c32 (configuration not stated)
inactive: SNB-75 28.1 µM | SF-539 > 100 µM | EKVX 23.1 µM | MDA-MB-435 6.1 µM | UO-31 12.7 µM | SN12C 76.6 µM | MCF7 16.6 µM | NCI-H522 7.06 µM | 786-0 37.3 µM | Hs-578T 56 µM | OVCAR-8 49.1 µM | Malme-3M 33.7 µM | K562 4.67 µM | DU-145 90.4 µM | COLO 205 13.9 µM | LOX IMVI 14.2 µM | TK-10 55.2 µM | SK-OV-3 > 100 µM | SF-295 33.3 µM

OCCCNc1[nH]cnc2nncc1-2
inactive: SNB-75 > 100 µM | SF-539 41.1 µM | EKVX > 100 µM | MDA-MB-435 > 100 µM | UO-31 > 100 µM | SN12C > 100 µM | MCF7 > 100 µM | NCI-H522 > 100 µM | 786-0 > 100 µM | Hs-578T > 100 µM | OVCAR-8 > 100 µM | Malme-3M > 100 µM | K562 > 100 µM | DU-145 > 100 µM | COLO 205 > 100 µM | LOX IMVI > 100 µM | TK-10 > 100 µM | SK-OV-3 > 100 µM | SF-295 > 100 µM

CC(=O)OC1=c2ccccc2=C(O)C2C1C=NN2C(C)=O (configuration not stated)
inactive: SNB-75 36.7 µM | SF-539 > 100 µM | EKVX 79.4 µM | MDA-MB-435 > 100 µM | UO-31 > 100 µM | SN12C > 100 µM | MCF7 > 100 µM | NCI-H522 > 100 µM | 786-0 > 100 µM | Hs-578T 88.5 µM | OVCAR-8 > 100 µM | Malme-3M 44.3 µM | K562 18.4 µM | DU-145 > 100 µM | COLO 205 95.3 µM | LOX IMVI > 100 µM | TK-10 > 100 µM | SK-OV-3 > 100 µM | SF-295 > 100 µM

N#CC(N)c1ccc(OCCCCCCCCCCOc2ccc(C(N)C#N)cc2)cc1 (configuration not stated)
inactive: SF-539 > 100 µM | EKVX > 100 µM | MDA-MB-435 > 100 µM | UO-31 > 100 µM | SN12C > 100 µM | MCF7 > 100 µM | NCI-H522 > 100 µM | 786-0 > 100 µM | Hs-578T > 100 µM | OVCAR-8 44.3 µM | Malme-3M > 100 µM | K562 > 100 µM | DU-145 > 100 µM | COLO 205 > 100 µM | LOX IMVI > 100 µM | TK-10 > 100 µM | SK-OV-3 > 100 µM | SF-295 > 100 µM

COC(=O)c1c(C(=O)OC)c2ccccn2c1-c1cc(OC)c(Br)c(=O)o1
inactive: SNB-75 15.1 µM | SF-539 56.8 µM | EKVX > 100 µM | MDA-MB-435 > 100 µM | UO-31 > 100 µM | SN12C > 100 µM | SR > 100 µM | NCI-H522 68.7 µM | 786-0 > 100 µM | Hs-578T 37.2 µM | OVCAR-8 > 100 µM | Malme-3M > 100 µM | K562 > 100 µM | DU-145 > 100 µM | COLO 205 > 100 µM | LOX IMVI > 100 µM | TK-10 > 100 µM | SK-OV-3 > 100 µM | SF-295 > 100 µM
